Reference: the supplement of paper PMC10307832

How the values were obtained:
[1] = compound: Cc1ccc2nc(NCCN)c3ncc(C)n3c2c1 + NC(=O)Nc1cc(-c2cccc(F)c2)sc1C(=O)N[C@H]1CCCNC1 [AZD7762] (partner 0.2 µM); assay: relative viability (nuclei count vs DMSO), 5 days (fraction); higher = more cells survive
Outline: (§1)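 Lung cancer cell lines were seeded in 1536-well plates and dosed by pin tool the next day, with either a single drug or a fixed anchor-drug dose combined with five library-drug doses (not always all listed) spaced in √10 steps. Five days later, one step fixed the cells and stained their nuclei (final 0.05% Triton X-100, 1% formaldehyde, 1 ug/ml Hoechst), and nuclei were counted on 4× images. Relative viability is the nuclei count in treated wells divided by the count in vehicle wells, and each value is the median of duplicate plates.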

[2] = compound: Cc1ccc2nc(NCCN)c3ncc(C)n3c2c1 + CC(=O)Nc1cccc(-n2c(=O)n(C3CC3)c(=O)c3c(Nc4ccc(I)cc4F)n(C)c(=O)c(C)c32)c1 [Trametinib] (partner 0.02 µM); assay: as above
Outline: as §1

Row | Cell Line | relative viability ([1]; first compound 0.04 µM) | relative viability ([1]; first compound 0.1265 µM) | relative viability ([1]; first compound 0.4 µM) | relative viability ([1]; first compound 1.265 µM) | relative viability ([1]; first compound 4 µM) | relative viability ([2]; first compound 0.04 µM) | relative viability ([2]; first compound 0.1265 µM) | relative viability ([2]; first compound 0.4 µM) | relative viability ([2]; first compound 1.265 µM) | relative viability ([2]; first compound 4 µM)
1 | NCI-H650 | 0.95 | 0.901 | 0.681 | 0.958 | 1.03 | 1.03 | 0.911 | 1.07 | 0.955 | 0.864
2 | NCI-H661 | – | – | – | – | – | 0.579 | 0.57 | 0.567 | 0.574 | 0.544
3 | NCI-H727 | 0.611 | – | 0.609 | 0.595 | 0.573 | 0.453 | – | 0.398 | 0.383 | 0.435
4 | NCI-H838 | 1.05 | 0.932 | 0.914 | 0.858 | 0.874 | 0.561 | 0.507 | 0.45 | 0.507 | 0.612
5 | NCI-H1355 | 0.75 | 0.685 | 0.72 | 0.644 | 0.763 | 0.44 | 0.448 | 0.392 | 0.39 | 0.387
6 | NCI-H1395 | 0.409 | 0.435 | 0.43 | 0.422 | 0.398 | 0.977 | 0.983 | 0.989 | 0.828 | 0.878
7 | NCI-H1437 | 1.08 | 1.12 | 1.16 | 0.901 | 1.04 | 0.578 | 0.463 | 0.445 | 0.415 | 0.381
8 | NCI-H1648 | 0.687 | 0.682 | 0.587 | 0.709 | 0.737 | 0.434 | 0.433 | 0.434 | 0.419 | 0.358
9 | NCI-H1650 | – | – | – | – | – | 0.57 | 0.499 | 0.739 | 0.494 | 0.427
10 | NCI-H1651 | 0.536 | 0.511 | 0.409 | 0.46 | 0.445 | 0.842 | 0.666 | 0.844 | 0.865 | 0.829
11 | NCI-H1666 | 0.903 | 0.961 | 0.774 | 0.756 | 0.841 | 0.907 | 0.796 | 0.773 | 0.863 | 0.8
12 | NCI-H1703 | 0.131 | 0.114 | – | 0.111 | 0.132 | – | – | – | – | –
13 | NCI-H1734 | 0.573 | 0.596 | 0.517 | 0.559 | 0.546 | 0.719 | 0.632 | 0.755 | 0.638 | 0.707
14 | NCI-H1755 | 0.476 | 0.45 | 0.492 | 0.435 | 0.433 | 0.757 | 0.809 | 0.769 | 0.8 | 0.776
15 | NCI-H1792 | 0.822 | 0.665 | – | 0.768 | 0.674 | 0.645 | 0.397 | – | 0.405 | 0.488
16 | NCI-H1793 | 0.506 | 0.411 | 0.361 | 0.39 | 0.417 | 0.371 | 0.363 | 0.525 | 0.363 | 0.4
17 | NCI-H1915 | 0.646 | 0.702 | 0.551 | 0.728 | 0.704 | 0.304 | 0.297 | 0.28 | 0.296 | 0.294
18 | NCI-H1944 | 0.48 | 0.64 | 0.456 | 0.351 | 0.498 | 0.432 | 0.476 | 0.401 | 0.381 | 0.427
19 | NCI-H1975 | 0.791 | 0.73 | 0.672 | 0.66 | 0.595 | 0.329 | 0.376 | 0.369 | 0.329 | 0.321

Row | Cell Line | relative viability ([1]; first compound 0.04 µM) | relative viability ([1]; first compound 0.1265 µM) | relative viability ([1]; first compound 0.4 µM) | relative viability ([1]; first compound 1.265 µM) | relative viability ([1]; first compound 4 µM) | relative viability ([2]; first compound 0.04 µM) | relative viability ([2]; first compound 0.1265 µM) | relative viability ([2]; first compound 0.4 µM) | relative viability ([2]; first compound 1.265 µM) | relative viability ([2]; first compound 4 µM)
20 | NCI-H1993 | 0.937 | 0.875 | 0.554 | 0.727 | 0.625 | 0.421 | 0.632 | 0.64 | 0.34 | 0.46
21 | NCI-H2009 | – | – | – | – | – | 0.309 | 0.251 | 0.286 | 0.273 | 0.28
22 | NCI-H2023 | – | – | – | – | – | 0.595 | 0.561 | 0.661 | 0.574 | 0.32
23 | NCI-H2085 | 1.06 | 0.996 | 0.916 | 0.952 | 1 | 1.03 | 0.63 | 0.502 | 0.491 | 0.499
24 | NCI-H2087 | 1.35 | 1.25 | 1.27 | 1.28 | 1.26 | 0.18 | 0.208 | 0.194 | 0.16 | 0.204
25 | NCI-H2126 | 1.12 | 1.01 | 0.965 | 1.14 | 0.936 | 0.547 | 0.563 | 0.522 | 0.607 | 0.552
26 | NCI-H2170 | 0.874 | 0.897 | 0.821 | 0.761 | 0.845 | 0.892 | 0.915 | 0.871 | 0.83 | 0.921
27 | NCI-H2228 | – | – | – | – | – | 0.549 | 0.501 | 0.522 | 0.519 | 0.424
28 | NCI-H2342 | 0.548 | 0.655 | 0.479 | 0.452 | 0.479 | 0.822 | 0.805 | 0.821 | 0.917 | 0.849
29 | NCI-H2347 | 0.719 | 0.733 | 0.687 | 0.794 | 0.636 | 0.269 | 0.289 | 0.264 | 0.29 | 0.3
30 | NCI-H2405 | 0.855 | 0.682 | 0.758 | 0.671 | 0.639 | 0.648 | 0.629 | 0.674 | 0.589 | 0.581
31 | NCI-H3122 | 1.05 | 1.04 | 0.98 | 0.973 | 1.05 | 0.21 | 0.26 | 0.248 | 0.259 | 0.238
32 | PC-3 [JPC-3] | 0.883 | 0.623 | 0.829 | 0.728 | 0.591 | 0.656 | 0.738 | 0.62 | 0.601 | 0.529
33 | PC-14 | 0.388 | 0.298 | 0.239 | 0.399 | 0.287 | 0.779 | 0.706 | 0.742 | 0.647 | 0.327
34 | RERF-LC-KJ | 1.09 | 0.934 | 0.828 | 0.942 | 0.838 | 0.857 | 0.805 | 0.888 | 0.86 | 0.828
35 | SK-LU-1 | – | – | – | – | – | 0.427 | 0.509 | 0.478 | 0.546 | 0.462
36 | SK-MES-1 | – | – | – | – | – | 0.545 | 0.556 | 0.539 | 0.594 | 0.573
37 | SW 900 | – | 0.56 | 0.438 | 0.694 | 0.736 | – | 0.901 | 0.827 | 0.749 | 0.621
38 | SW 1573 | – | – | – | – | – | 0.584 | 0.6 | 0.602 | 0.612 | 0.306
